Reference: US9926293B2, “Multivalent RAS binding compounds” (THE TRUSTEES OF COLUMBIA UNIVERSITY IN THE CITY OF NEW YORK, priority 2014, dated 2018)
Read-outs that look alike come from different tables or passages of the source.

Legend:
[1] = system: RAS-RAF interaction in BJeLR cells; assay: Cell-based RAS pulldown with CRAF-RBD agarose beads; conditions: 2 μM and 8 μM, 24 hours, serum free
Protocol: FIG. 20A-FIG. 20B show BJeLR cells were treated as described in FIG. 19A-FIG. 19B and the lysate was incubated with CRAF-RBD bound agarose beads. The beads were then washed three times with PBS to remove any unbound RAS and the bound fraction was then denatured and subjected to detection by western blotting using a pan-RAS antibody (FIG. 20A).
BJeLR cells were seeded at one million cells/10 cm dish in 10% FBS and incubated at 37° C. overnight. The medium was then aspirated and replaced with serum free media containing the inhibitors (from 10 mM DMSO stocks). The cells were then incubated for 24 hours at 37° C. The medium was removed, washed with cold PBS, lysed and spun down at 13,000 rpm at 4° C. to remove unlysed cells and debris. The lysate was incubated with Raf-1 RBD agarose beads (EMD millipore) for 2 hours with rotation at 4° C. The solution was then spun down at 1500×g and the supernatant removed. The beads were washed twice with PBS, resuspended in 2.5×SDS, and then analyzed by western blotting procedure.

[2] = system: caspases 3 and 7 in HT-1080 (NRAS^Q61K) cells; assay: Caspase 3/7 activation assay; format: cell-based; conditions: staurosporine 5 μM, 24 hours
Protocol: Caspase 3/7 Activation Assay
HT-1080 cells were seeded into 384-well plates at 1,000 cells/well. After 12-16 hours, compounds (as 50 mM stocks in DMSO) were arrayed in a dilution series in 384-well polypropylene plates. Compound solutions were transferred at a 1:5 dilution into the assay plates for a total volume of 40 μL. After 24 hours, 8 μL of a 1:100 solution of rhodamine 110 bis-(N-CBZ-1-aspartyl-1-glutamyl-1-valyl-aspartic acid amide) to lysis buffer (APO-1, Promega) was added and the plate was wrapped in aluminum foil and incubated at room temperature for 16 hours. Fluorescence intensity was then determined using a Victor3 plate reader (Perkin Elmer) with a 490 nm excitation filter and a 535 nm emission filter. A viability curve was performed in parallel with the same incubation time using the procedure described in the “cell viability assays” section.

GppNHp-loaded KRASG12D = biological target: T1, GppNHp-loaded KRASG12D (Homo sapiens, UniProt P01116, G12D); assay: Microscale thermophoresis, lysine NT-647-labeled GppNHp-loaded KRAS^G12D; format: binding; conditions: read-out: dissociation constant KD
T1 construct: made in house; host or cells: Escherichia coli BL21-Gold (DE3)
Protocol: Microscale Thermophoresis
KRAS^G12D (250 μM) in 25 mM HEPES, 100 mM sodium chloride, 2 mM TCEP with 20 mM EDTA and 1 mM GppNHp was shaken at 220 rpm at 30° C. to remove the endogenous nucleotide, The solution was placed on ice for 2 minutes prior to the addition of 65 mM MgCl2. After an additional 10 minutes incubation on ice, 200 uL of a 10 uM solution of KRAS^G12D was combined with 200 uL of a 20 uM solution of NT-647-NHS-ester dye (from a 652.4 μM stock). The protein/dye mixture was rotated at 4° C. for 30 minutes, before being separated from the excess dye and buffer exchanged into 25 mM Tris, 100 mM sodium chloride, 2 mM TCEP, and 5 mM MgCl2 via a nap-5 column. The test compounds were arrayed across a 16-point dilution series consisting of 1.5% DMSO with 25 mM Tris, 100 mM NaCl, 2 mM TCEP, 5 mM MgCl2 and 0.05% tween-20. Thermophoretic movement of the fluorescently labeled protein with the inhibitors was performed using a Monolith NT.115 (Nanotemper Technologies). RALA and RHOA were purchased commercially from Abcam (RALA CN:ab102555, RHOA CN:ab101594).
In another set of experiments, the top D38-A59 two-site multivalent compounds were evaluated by a RAS pulldown using the RAS binding domain of CRAF (the top two hits are shown in FIG. 14D). This abrogation of binding between RAS and its effector protein was also evident in the RAS-RALGDS interaction (FIG. 14E). To quantify the binding of the two-site compounds to RAS, MST was performed again using lysine NT-647-labeled, GppNHp-loaded KRAS^G12D. […] The third (Y32) site was extended into (compound 34MEW95) using this scaffold.
Docking scores and dissociation constants for binding to GppNHp-bound KRAS^G12D (PDB:4DSN) were measured as set forth above for additional 2- and 3-site compounds by microscale thermophoresis.

[3] = system: phosphorylated AKT in BJeLR cells; assay: Western blot of phosphorylated AKT; format: cell-based; conditions: 2 μM and 8 μM, 24 hours, serum free
Protocol: FIG. 21A-FIG. 21B show BJeLR cells were treated as described in FIG. 19A-FIG. 19B and the lysate was subjected to detection of phosphorylated AKT ([…]) and total AKT by western blotting (FIG. 21A).
BJeLR cells were seeded in 60 mm dishes at 1 million cells/dish in media containing DMEM and 10% FBS with 1% penicillin and streptomycin (PS), 12-16 hours prior to use. The medium was then aspirated and compounds added as solutions in serum free medium (DMEM with 1% PS) to the dishes and treated for 24 hours or at the indicated time points. Following treatment, the medium was aspirated from each dish and cells were washed twice with PBS. […] Antibodies for pERK1/2, ERK1/2, pAKT ser473, AKT, pan-RAS, RALA, PI3Kgamma (Cell signaling), and RAF-1 (Santa Cruz) were detected using a goat anti-rabbit or goat anti-mouse IgG antibody conjugated to an IRdye at 800CW and 680CW conjugated, respectively (Li-COR biosciences).

[4] = 31MEW44 5 μM, 34MEW43 10 μM, 34MEW95 5 μM

T1 sequence (P01116 1-169 isoform P01116-2 G12D): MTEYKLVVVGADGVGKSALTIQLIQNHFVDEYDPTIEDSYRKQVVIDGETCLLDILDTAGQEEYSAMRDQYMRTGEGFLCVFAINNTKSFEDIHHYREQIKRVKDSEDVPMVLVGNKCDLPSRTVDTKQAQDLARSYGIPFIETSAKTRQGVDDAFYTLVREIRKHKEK

How did the “CRAF-RBD-bound RAS” value [1] turn out when `NC1(C(=O)NCCCn2cc(-c3ccc(OC(F)(F)F)cc3)c3cc(CN4CCN(Cc5c(Cl)cccc5Cl)CC4)ccc32)CCNCC1` [Compound 31MEW44, 4-amino-N-(3-(5-((4-(2,6-dichlorobenzyl)piperazin-1-yl)methyl)-3-(4-(trifluoromethoxy)phenyl)-1H-indol-1-yl)propyl)piperidine-4-carboxamide] was run?
Its value is “dose-dependent decrease in CRAF-RBD-bound RAS”.

And the “fluorescence of caspase 3/7 substrate” value [2, 4]?
The value was “Increased fluorescence”.

And the “fluorescence of caspase 3/7 substrate” value ([2]; 31MEW44 2.5 and 5 μM)?
Its value is “Increased fluorescence”.

What about the Kd (GppNHp-loaded KRASG12D; MST, GppNHp-loaded KRAS^G12D, 34MEW43 and 34MEW95 estimated, no full dose-response curve) of the same compound?
The Kd was 9 µM.

What about the “phosphorylated AKT” value [3] of the same compound?
The value was “dose-dependent decrease in phosphorylated AKT”.

Which results are given for `NC1(C(=O)NCCCn2cc(-c3cccc(F)c3)c3c(CN4CCN(CCOc5ccc(Cl)cc5)CC4)cccc32)CCNCC1` [Compound 34MEW43, 4-amino-N-(3-(4-((4-(2-(4-chlorophenoxy)ethyl)piperazin-1-yl)methyl)-3-(3-fluorophenyl)-1H-indol-1-yl)propyl)piperidine-4-carboxamide]?
CRAF-RBD-bound RAS [1]: dose-dependent decrease in CRAF-RBD-bound RAS; fluorescence of caspase 3/7 substrate [2, 4]: Increased fluorescence; Kd (GppNHp-loaded KRASG12D): 73 µM; phosphorylated AKT [3]: dose-dependent decrease in phosphorylated AKT
